The test system of the assay is L1210 leukemia ip in BDF1 mice, survival T/C. Nature of the assay: NCI In Vivo Anticancer Drug Screen. Data for tumor model L1210 Leukemia (intraperitoneal) in B6D2F1 (BDF1) mice. As to conditions: higher = longer survival. An outline of the steps: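 Each compound was tested against a transplantable tumor grown in mice. The endpoint was survival, with treated animals benchmarked against vehicle controls as a simple ratio.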

Where [1] appears, read: endpoint: mean survival time, dose: 25.0 mg/kg/injection, schedule: Q01DX009 (ip), vehicle: saline.
Where [2] appears, read: endpoint: mean survival time, dose: 50.0 mg/kg/injection, schedule: Q01DX009 (ip), vehicle: saline.
[3] abbreviates: endpoint: mean survival time, dose: 100.0 mg/kg/injection, schedule: Q01DX009 (ip), vehicle: saline.
[4] abbreviates: endpoint: mean survival time, dose: 200.0 mg/kg/injection, schedule: Q01DX001 (ip), vehicle: saline.
[5] abbreviates: endpoint: mean survival time, dose: 400.0 mg/kg/injection, schedule: Q01DX001 (ip), vehicle: saline.
The mark [6] stands for this setting: endpoint: mean survival time, dose: 100.0 mg/kg/injection, schedule: Q01DX001 (ip), vehicle: saline.
The mark [7] stands for this setting: endpoint: mean survival time, dose: 100.0 mg/kg/injection, schedule: Q04DX003 (ip), vehicle: saline.
Setting [8] is: endpoint: mean survival time, dose: 200.0 mg/kg/injection, schedule: Q04DX003 (ip), vehicle: saline.

Structures are written as SMILES. Values joined by “and” are separate entries in the source; they are usually repeats but may differ in a detail not shown here. Identical values can stand only once. Toxic doses and inconclusive results are not listed.

Take `O=P1(NCCCl)OCCCN1CCCl` (configuration not stated): the T/C by setting is: (endpoint: mean survival time, dose: 12.5 mg/kg/injection, schedule: Q01DX001 (ip), vehicle: saline) 101 % of control; (endpoint: mean survival time, dose: 25.0 mg/kg/injection, schedule: Q01DX001 (ip), vehicle: saline) 116 % of control and 117 % of control; under setting [1], 155 % of control; (endpoint: mean survival time, dose: 25.0 mg/kg/injection, schedule: Q07DX003 (ip), vehicle: saline) 110 % of control; (endpoint: mean survival time, dose: 50.0 mg/kg/injection, schedule: Q01DX001 (ip), vehicle: saline) 124 % of control; under setting [2], 160 % of control. Moreover, the T/C (endpoint: mean survival time, dose: 50.0 mg/kg/injection, schedule: Q01DX009 (ip), vehicle: water) was 173 % of control; the T/C (endpoint: mean survival time, dose: 75.0 mg/kg/injection, schedule: Q07DX003 (ip), vehicle: saline) was 166 % of control; the T/C under setting [3] is 260 % of control; the T/C (endpoint: mean survival time, dose: 100.0 mg/kg/injection, schedule: Q01DX009 (ip), vehicle: water) was 185 % of control; the T/C (endpoint: mean survival time, dose: 100.0 mg/kg/injection, schedule: Q07DX003 (ip), vehicle: saline) was 216 % of control; the T/C (endpoint: mean survival time, dose: 125.0 mg/kg/injection, schedule: Q07DX003 (ip), vehicle: saline) was 206 % of control. Further, the T/C (endpoint: mean survival time, dose: 150.0 mg/kg/injection, schedule: Q01DX001 (ip), vehicle: saline) is 249 % of control; the T/C under setting [4] was 191 % of control and 221 % of control and 298 % of control; the T/C (endpoint: mean survival time, dose: 200.0 mg/kg/injection, schedule: Q01DX009 (ip), vehicle: saline) is 167 % of control; the T/C under setting [5] was 198 % of control; the T/C (endpoint: mean survival time, dose: 800.0 mg/kg/injection, schedule: Q01DX001 (ip), vehicle: saline) was 206 % of control; the T/C (endpoint: median survival time, dose: 65.0 mg/kg/injection, schedule: Q01DX014 (ip), vehicle: water) is 215 % of control and 216 % of control. The T/C was 118 % of control and 121 % of control (endpoint: median survival time, dose: 108.0 mg/kg/injection, schedule: Q01DX001 (ip), vehicle: water); 172 % of control and 175 % of control (endpoint: median survival time, dose: 180.0 mg/kg/injection, schedule: Q01DX001 (ip), vehicle: saline); 291 % of control (endpoint: median survival time, dose: 180.0 mg/kg/injection, schedule: Q01DX009 (ip), vehicle: water); 105 % of control (endpoint: median survival time, dose: 180.0 mg/kg/injection, schedule: Q01DX014 (ip), vehicle: water); 289 % of control (endpoint: median survival time, dose: 180.0 mg/kg/injection, schedule: Q07DX003 (ip), vehicle: water); 261 % of control and 266 % of control (endpoint: median survival time, dose: 300.0 mg/kg/injection, schedule: Q01DX001 (ip), vehicle: saline). Besides, the T/C runs as follows: (endpoint: median survival time, dose: 300.0 mg/kg/injection, schedule: Q01DX009 (ip), vehicle: water) 187 % of control; (endpoint: median survival time, dose: 300.0 mg/kg/injection, schedule: Q01DX014 (ip), vehicle: water) 76 % of control; (endpoint: median survival time, dose: 300.0 mg/kg/injection, schedule: Q07DX003 (ip), vehicle: water) 168 % of control; (endpoint: median survival time, dose: 400.0 mg/kg/injection, schedule: Q01DX001 (ip), vehicle: water) 272 % of control and 297 % of control; (endpoint: median survival time, dose: 500.0 mg/kg/injection, schedule: Q01DX001 (ip), vehicle: saline) 44 % of control; (endpoint: median survival time, dose: 500.0 mg/kg/injection, schedule: Q01DX009 (ip), vehicle: water) 81 % of control. Also, the T/C (endpoint: median survival time, dose: 600.0 mg/kg/injection, schedule: Q01DX001 (ip), vehicle: water) was 227 % of control and 255 % of control; the T/C (endpoint: median survival time, dose: 700.0 mg/kg/injection, schedule: Q01DX001 (ip), vehicle: water) was 46 % of control; the T/C (endpoint: median survival time, dose: 800.0 mg/kg/injection, schedule: Q01DX001 (ip), vehicle: water) was 39 % of control; the T/C (endpoint: median survival time, dose: 833.0 mg/kg/injection, schedule: Q01DX001 (ip), vehicle: saline) was 23 % of control; the T/C (endpoint: median survival time, dose: 833.0 mg/kg/injection, schedule: Q01DX009 (ip), vehicle: water) was 24 % of control; the T/C (endpoint: median survival time, dose: 900.0 mg/kg/injection, schedule: Q01DX001 (ip), vehicle: water) was 25 % of control.
As for `N#CC(C#N)=Cc1ccc2c(c1)CCC2`, the T/C runs as follows: (endpoint: mean survival time, dose: 10.0 mg/kg/injection, schedule: Q01DX009 (ip), vehicle: saline with Tween-80) 100 % of control; (endpoint: mean survival time, dose: 20.0 mg/kg/injection, schedule: Q01DX009 (ip), vehicle: saline with Tween-80) 96 % of control; (endpoint: mean survival time, dose: 40.0 mg/kg/injection, schedule: Q01DX009 (ip), vehicle: saline with Tween-80) 94 % of control; (endpoint: mean survival time, dose: 75.0 mg/kg/injection, schedule: Q01DX001 (ip), vehicle: other) 96 % of control.
In the case of `C=NCC#N`, the T/C (endpoint: mean survival time, dose: 100.0 mg/kg/injection, schedule: Q01DX009 (ip), vehicle: saline with Tween-80) was 91 % of control; the T/C (endpoint: mean survival time, dose: 200.0 mg/kg/injection, schedule: Q01DX009 (ip), vehicle: saline with Tween-80) was 91 % of control; the T/C (endpoint: mean survival time, dose: 400.0 mg/kg/injection, schedule: Q01DX009 (ip), vehicle: saline with Tween-80) is 93 % of control.
For `COc1cc2c(cc1OC)C(Cc1cc(OC)c(OC)cc1[N+](=O)[O-])=NCC2`, the T/C by setting is: under setting [6], 100 % of control; under setting [4], 98 % of control; under setting [5], 94 % of control.
For `OC(CC1=NNC(=S)NC1)(C(F)(F)F)C(F)(F)F`, the T/C by setting is: (endpoint: mean survival time, dose: 100.0 mg/kg/injection, schedule: Q04DX003 (ip), vehicle: saline with Tween-80) 95 % of control; (endpoint: mean survival time, dose: 200.0 mg/kg/injection, schedule: Q04DX003 (ip), vehicle: saline with Tween-80) 87 % of control.
As to `Cc1nc2c(Cl)cc(Cl)cc2s1`, the T/C runs as follows: (endpoint: mean survival time, dose: 100.0 mg/kg/injection, schedule: Q01DX001 (ip), vehicle: acetone) 100 % of control; under setting [7], 95 % of control; (endpoint: mean survival time, dose: 200.0 mg/kg/injection, schedule: Q01DX001 (ip), vehicle: acetone) 106 % of control; under setting [8], 90 % of control; (endpoint: mean survival time, dose: 400.0 mg/kg/injection, schedule: Q01DX001 (ip), vehicle: acetone) 102 % of control; (endpoint: mean survival time, dose: 400.0 mg/kg/injection, schedule: Q04DX003 (ip), vehicle: saline) 92 % of control.
For the compound `CC12CCC(=O)C=C1CCCC2=O` (configuration not stated), the T/C reads like this: under setting [7], 95 % of control; under setting [8], 101 % of control.
As for `Nc1ccc(N(S(=O)(=O)c2ccccc2)S(=O)(=O)c2ccccc2)nc1`, the T/C is 95 % of control (endpoint: mean survival time, dose: 100.0 mg/kg/injection, schedule: Q01DX009 (ip), vehicle: Klucel (hydroxypropylcellulose) (HPC)); 98 % of control (endpoint: mean survival time, dose: 100.0 mg/kg/injection, schedule: Q04DX003 (ip), vehicle: Klucel (hydroxypropylcellulose) (HPC)); 100 % of control (endpoint: mean survival time, dose: 200.0 mg/kg/injection, schedule: Q01DX009 (ip), vehicle: Klucel (hydroxypropylcellulose) (HPC)); 97 % of control (endpoint: mean survival time, dose: 200.0 mg/kg/injection, schedule: Q04DX003 (ip), vehicle: Klucel (hydroxypropylcellulose) (HPC)); 106 % of control (endpoint: mean survival time, dose: 400.0 mg/kg/injection, schedule: Q01DX009 (ip), vehicle: Klucel (hydroxypropylcellulose) (HPC)); 103 % of control (endpoint: mean survival time, dose: 400.0 mg/kg/injection, schedule: Q04DX003 (ip), vehicle: Klucel (hydroxypropylcellulose) (HPC)).
In the case of `CCOP(=O)(OCC)SC=C(Cl)Cl`, the T/C (endpoint: mean survival time, dose: 25.0 mg/kg/injection, schedule: Q04DX002 (ip), vehicle: saline with Tween-80) is 94 % of control; the T/C (endpoint: mean survival time, dose: 50.0 mg/kg/injection, schedule: Q04DX002 (ip), vehicle: saline with Tween-80) is 91 % of control; the T/C (endpoint: mean survival time, dose: 100.0 mg/kg/injection, schedule: Q04DX002 (ip), vehicle: saline with Tween-80) was 94 % of control and 95 % of control.
Turning to `Nc1nc(=S)c2ncn(C3OCC(O)C(O)C3O)c2[nH]1` (configuration not stated), the T/C (endpoint: mean survival time, dose: 5.0 mg/kg/injection, schedule: Q01DX001 (ip), vehicle: saline) is 101 % of control; the T/C (endpoint: mean survival time, dose: 10.0 mg/kg/injection, schedule: Q01DX001 (ip), vehicle: saline) was 95 % of control; the T/C (endpoint: mean survival time, dose: 12.5 mg/kg/injection, schedule: Q01DX009 (ip), vehicle: saline) was 98 % of control; the T/C (endpoint: mean survival time, dose: 20.0 mg/kg/injection, schedule: Q01DX001 (ip), vehicle: saline) was 96 % of control; the T/C under setting [1] was 97 % of control; the T/C (endpoint: mean survival time, dose: 40.0 mg/kg/injection, schedule: Q01DX001 (ip), vehicle: saline) was 101 % of control. Besides, the T/C was 98 % of control under setting [2]; 96 % of control (endpoint: mean survival time, dose: 80.0 mg/kg/injection, schedule: Q01DX001 (ip), vehicle: saline); 98 % of control under setting [6]; 101 % of control under setting [3]; 102 % of control under setting [4]; 102 % of control under setting [5].

For the origin of these results see PubChem BioAssay AID248 (DTP/NCI, 2004).
